In publication PMC9596378, “Discovery and molecular basis of subtype-selective cyclophilin inhibitors” (Nature Chemical Biology, 2022):
“And” between values parts separate entries of the source, which are not always exact repeats. Equal values may be shown once. Read-outs that look alike come from different tables or passages of the source.

How the values were obtained:
Assay in all cases: Chymotrypsin coupled prolyl-isomerase assay
Assay type in all cases: biochemical
[1] = target: T1, PPIL1 (Homo sapiens, UniProt Q9Y3C6); details: for PPIL1 prolyl-isomerase assay raw dose-response value: Fig. 3b source data, replicates
T1 construct: PPIL1 (UniProtKB Entry Q9Y3C6: residues 1–166); made in house; host or cells: E. coli BL21(DE3)
T1 sequence (Q9Y3C6 1-166): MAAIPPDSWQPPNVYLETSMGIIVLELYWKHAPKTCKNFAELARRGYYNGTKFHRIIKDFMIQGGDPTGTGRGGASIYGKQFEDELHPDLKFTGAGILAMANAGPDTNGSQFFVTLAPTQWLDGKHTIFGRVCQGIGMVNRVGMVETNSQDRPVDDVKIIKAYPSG
Method: Adapting a previously described protocol[51], with an Agilent Bravo Velocity 11 with a 384ST head, 90 µL assay buffer (25 mM HEPES pH 7.3, 100 mM NaCl, 0.01% Triton X-100) containing 5.28 nM cyclophilin was added into a flat, clear-bottom, black 384-well plate pre-chilled in a Corning CoolBox at 2–3 °C. Five microliters of compound pre-dissolved in 5% DMSO/assay buffer was then added to appropriate wells and incubated at 2–3 °C for 5 min. Five microliters of 0.5 mM α-chymotrypsin from bovine pancreas (Type II, lyophilized powder, Millipore-Sigma) in 20% 1 mM HCl/Assay Buffer was then added to each well and incubated at 2–3 °C for 5 min. […] Using the internal liquid handling system of the FLIPR, 1 µL 0.5 mM Suc-AAPF-AMC (Chymotrypsin Substrate II, Millipore-Sigma) dissolved in 0.55 M LiCl/2,2,2-trifluoroethanol was added to each well, which was then mixed for 5 s, followed by immediate fluorescence measurements every 1 s for 330 s using a 360–380 nm excitation LED module and a 400–460 nm emission filter. Final concentrations of the plate include 5 nM cyclophilin, 0.25% DMSO, 25 µM α-chymotrypsin, 5 µM Suc-AAPF-AMC. Raw fluorescence data was analyzed by non-linear regression analysis with Prism v.9 by fitting one-phase association curves to each well. Analyses were halted after the calculated maximum fluorescent value owing to observed fluorescent bleaching during the sustained fluorescent plateau. Rate constants calculated for each well (s^−1) were then normalized to substrate only (no prolyl-isomerase) and enzyme + substrate only controls. IC50 values were calculated as the value at which 50% inhibition was achieved on the non-linear regression fitted curve of each compound.

[2] = target: T2, CypA (Homo sapiens, UniProt P62937); details: for CypA prolyl-isomerase assay raw dose-response value: Fig. 3b source data, replicates
T2 construct: PPIA (UniProtKB Entry P62937: residues 1–165); made in house; host or cells: E. coli BL21(DE3)
T2 sequence (P62937 whole entry, the tested form may be a part): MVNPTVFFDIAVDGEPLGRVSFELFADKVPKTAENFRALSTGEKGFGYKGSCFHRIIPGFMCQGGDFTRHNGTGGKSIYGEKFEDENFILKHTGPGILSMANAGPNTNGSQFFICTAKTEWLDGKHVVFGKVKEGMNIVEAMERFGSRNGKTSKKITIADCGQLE
Outline: (§1)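 Steps: cyclophilin plus compound 5 min at 2–3 °C; α-chymotrypsin added, 5 min more; Suc-AAPF-AMC substrate in LiCl/trifluoroethanol injected and fluorescence followed 330 s. Finals: 5 nM enzyme, 25 µM chymotrypsin, 5 µM substrate, 0.25% DMSO.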

[3] = target: T3, CypC (Homo sapiens, UniProt P45877); details: for CypC prolyl-isomerase assay raw dose-response value: Fig. 3b source data, replicates
T3 construct: PPIC (UniProtKB Entry P45877: residues 24–212); host or cells: E. coli BL21(DE3)
T3 sequence (P45877 24-212): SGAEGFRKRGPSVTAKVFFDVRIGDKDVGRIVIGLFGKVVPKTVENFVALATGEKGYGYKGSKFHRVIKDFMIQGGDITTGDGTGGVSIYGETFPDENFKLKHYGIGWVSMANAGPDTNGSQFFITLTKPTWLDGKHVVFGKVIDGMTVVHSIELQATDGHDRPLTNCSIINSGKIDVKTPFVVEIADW
Outline: as §1

[4] = target: T4, CypG (Homo sapiens, UniProt Q13427); details: for CypG prolyl-isomerase assay raw dose-response value: Fig. 3b source data, replicates
T4 construct: PPIG (UniProtKB Entry Q13427: residues 1–179); His6 with thrombin site (pET28a LIC leader) (N); host or cells: E. coli BL21(DE3)
T4 sequence (Q13427 1-179): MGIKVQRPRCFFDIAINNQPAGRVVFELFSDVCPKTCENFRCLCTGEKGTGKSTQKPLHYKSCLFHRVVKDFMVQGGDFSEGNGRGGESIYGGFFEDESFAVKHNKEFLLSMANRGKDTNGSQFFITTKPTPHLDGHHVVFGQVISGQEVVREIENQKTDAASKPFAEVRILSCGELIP
Outline: as §1

NCCOCCNC(=O)[C@@H]1CCNC(=O)/C=C/C(=O)N2CCC[C@](Cc3ccccc3)(C2)C(=O)N[C@@H](Cc2ccc(-c3ccc(CCC(=O)O)cc3)cc2)C(=O)NCc2ccccc2CC(=O)N1 [Compound B23]
PPIL1 prolyl-isomerase assay raw dose-response value ([1]; Dose 0.0201875 µM): 0.07231 and 0.05967 and 0.06308
PPIL1 prolyl-isomerase assay raw dose-response value ([1]; Dose 0.0605624 µM): 0.05364 and 0.0572 and 0.05937
PPIL1 prolyl-isomerase assay raw dose-response value ([1]; Dose 0.181687 µM): 0.04207 and 0.04374 and 0.05902
PPIL1 prolyl-isomerase assay raw dose-response value ([1]; Dose 0.545062 µM): 0.02667 and 0.03161 and 0.02807
PPIL1 prolyl-isomerase assay raw dose-response value ([1]; Dose 1.63519 µM): 0.01818 and 0.02247 and 0.01913
PPIL1 prolyl-isomerase assay raw dose-response value ([1]; Dose 4.90556 µM): 0.01354 and 0.01399 and 0.01299
PPIL1 prolyl-isomerase assay raw dose-response value ([1]; Dose 14.7167 µM): 0.01244 and 0.01258 and 0.01177
PPIL1 prolyl-isomerase assay raw dose-response value ([1]; Dose 44.15 µM): 0.01521 and 0.01086 and 0.01169
IC50 ([1]; wild-type PPIL1, read-out: Wild-Type Cyclophilin Prolyl Isomerase Inhibition IC50 Values, PPIL1): 130 nM
IC50 ([2]; CypA column within the mutant section (comparator for CypA E81S/K82R), read-out: Mutant Cyclophilin Prolyl Isomerase Inhibition IC50 Values, CypA): 80 nM
CypA prolyl-isomerase assay raw dose-response value ([2]; Dose 0.0201875 µM): 0.09097 and 0.1013 and 0.1158
CypA prolyl-isomerase assay raw dose-response value ([2]; Dose 0.0605624 µM): 0.07524 and 0.06823 and 0.07786
CypA prolyl-isomerase assay raw dose-response value ([2]; Dose 0.181687 µM): 0.04845 and 0.04593 and 0.054
CypA prolyl-isomerase assay raw dose-response value ([2]; Dose 0.545062 µM): 0.03092 and 0.02915 and 0.02773
CypA prolyl-isomerase assay raw dose-response value ([2]; Dose 1.63519 µM): 0.0188 and 0.01847 and 0.01826
CypA prolyl-isomerase assay raw dose-response value ([2]; Dose 4.90556 µM): 0.01632 and 0.01475 and 0.01432
CypA prolyl-isomerase assay raw dose-response value ([2]; Dose 14.7167 µM): 0.01473 and 0.01273 and 0.01279
CypA prolyl-isomerase assay raw dose-response value ([2]; Dose 44.15 µM): 0.01511 and 0.01244 and 0.01258
IC50 ([2]; prolyl-isomerase inhibition, 5 nM cyclophilin, read-out: IC50 CypA): 80 ± 10 nM
IC50 ([2]; prolyl-isomerase inhibition, read-out: IC50 CypA): 80 nM
IC50 ([2]; wild-type CypA, read-out: Wild-Type Cyclophilin Prolyl Isomerase Inhibition IC50 Values, CypA): 80 nM
CypC prolyl-isomerase assay raw dose-response value ([3]; Dose 0.0201875 µM): 0.0364 and 0.03611 and 0.04566
CypC prolyl-isomerase assay raw dose-response value ([3]; Dose 0.0605624 µM): 0.03688 and 0.04021 and 0.04113
CypC prolyl-isomerase assay raw dose-response value ([3]; Dose 0.181687 µM): 0.04275 and 0.03781 and 0.03638
CypC prolyl-isomerase assay raw dose-response value ([3]; Dose 0.545062 µM): 0.03775 and 0.04123 and 0.03915
CypC prolyl-isomerase assay raw dose-response value ([3]; Dose 1.63519 µM): 0.0345 and 0.03482 and 0.03957
CypC prolyl-isomerase assay raw dose-response value ([3]; Dose 4.90556 µM): 0.0293 and 0.02714 and 0.0334
CypC prolyl-isomerase assay raw dose-response value ([3]; Dose 14.7167 µM): 0.02525 and 0.02065 and 0.02297
CypC prolyl-isomerase assay raw dose-response value ([3]; Dose 44.15 µM): 0.02045 and 0.01408 and 0.0166
IC50 ([3]; wild-type CypC, read-out: Wild-Type Cyclophilin Prolyl Isomerase Inhibition IC50 Values, CypC): 5000 nM
CypG prolyl-isomerase assay raw dose-response value ([4]; Dose 0.0201875 µM): 0.05557 and 0.07057 and 0.08284
CypG prolyl-isomerase assay raw dose-response value ([4]; Dose 0.0605624 µM): 0.06342 and 0.06664 and 0.0785
CypG prolyl-isomerase assay raw dose-response value ([4]; Dose 0.181687 µM): 0.06147 and 0.06545 and 0.06938
CypG prolyl-isomerase assay raw dose-response value ([4]; Dose 0.545062 µM): 0.06208 and 0.06061 and 0.06273
CypG prolyl-isomerase assay raw dose-response value ([4]; Dose 1.63519 µM): 0.04663 and 0.04276 and 0.05928
CypG prolyl-isomerase assay raw dose-response value ([4]; Dose 4.90556 µM): 0.04439 and 0.04343 and 0.05116
CypG prolyl-isomerase assay raw dose-response value ([4]; Dose 14.7167 µM): 0.03836 and 0.03799 and 0.04109
CypG prolyl-isomerase assay raw dose-response value ([4]; Dose 44.15 µM): 0.02708 and 0.02241 and 0.02205
IC50 ([4]; wild-type CypG, read-out: Wild-Type Cyclophilin Prolyl Isomerase Inhibition IC50 Values, CypG): 5000 nM
